Literature values as cited in patent publication US20240010634A1, “PYRIMIDINYL SULFONAMIDES AS INHIBITORS OF ACK1/TNK2 TYROSINE KINASE” (H. LEE MOFFITT CANCER CENTER AND RESEARCH INSTITUTE, INC., priority 2020, published 2024).

Experiments:
[1] = system: cell line which is dependent upon ACK1; conditions: read-out: IC50, growth of a cell line dependent upon ACK1; cited from earlier work
[2] = target: ACK1 (Homo sapiens (Human), UniProt Q07912); conditions: cited from earlier work
[3] = system: AR phosphorylation of Tyr-267; conditions: heregulin-stimulated LNCaP cells; cited from earlier work
[4] = system: ACK1 autophosphorylation; conditions: heregulin-stimulated LNCaP cells; cited from earlier work

ACK1, sequence (Q07912 whole entry): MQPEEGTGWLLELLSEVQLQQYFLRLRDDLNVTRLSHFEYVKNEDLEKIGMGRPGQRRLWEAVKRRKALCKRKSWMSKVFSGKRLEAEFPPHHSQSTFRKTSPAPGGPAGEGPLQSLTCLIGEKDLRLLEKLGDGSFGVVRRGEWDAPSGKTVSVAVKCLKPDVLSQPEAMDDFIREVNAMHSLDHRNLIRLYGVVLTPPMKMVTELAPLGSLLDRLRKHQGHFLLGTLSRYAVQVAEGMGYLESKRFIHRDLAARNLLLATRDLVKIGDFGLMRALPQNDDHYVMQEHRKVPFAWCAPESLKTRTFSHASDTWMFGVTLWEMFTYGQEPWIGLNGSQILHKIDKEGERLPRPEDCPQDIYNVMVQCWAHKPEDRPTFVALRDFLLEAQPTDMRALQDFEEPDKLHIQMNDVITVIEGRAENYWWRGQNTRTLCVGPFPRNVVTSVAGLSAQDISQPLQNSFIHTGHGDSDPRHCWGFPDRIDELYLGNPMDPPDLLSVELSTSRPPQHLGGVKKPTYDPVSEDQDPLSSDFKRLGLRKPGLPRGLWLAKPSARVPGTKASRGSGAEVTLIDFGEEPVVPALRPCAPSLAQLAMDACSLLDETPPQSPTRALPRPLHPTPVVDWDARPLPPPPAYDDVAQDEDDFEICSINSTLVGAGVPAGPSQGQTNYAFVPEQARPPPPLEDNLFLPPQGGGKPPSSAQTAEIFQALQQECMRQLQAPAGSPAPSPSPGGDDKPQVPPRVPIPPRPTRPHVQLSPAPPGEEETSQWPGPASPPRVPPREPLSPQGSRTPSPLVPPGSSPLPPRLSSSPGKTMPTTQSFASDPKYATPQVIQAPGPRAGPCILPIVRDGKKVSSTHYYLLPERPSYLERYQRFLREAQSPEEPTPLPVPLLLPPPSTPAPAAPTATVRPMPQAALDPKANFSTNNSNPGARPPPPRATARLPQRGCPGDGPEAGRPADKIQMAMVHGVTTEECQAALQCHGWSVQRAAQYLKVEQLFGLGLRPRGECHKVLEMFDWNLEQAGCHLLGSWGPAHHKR

For CN(C)CCOc1ccc(-c2oc3ncnc(NCC4SCCS4)c3c2-c2ccccc2)cc1 [Compound 1c], the IC50 [1] is given as 5 nM and the Ki [2] is given as 0.3 nM.

For Cc1nc(Nc2ncc(C(=O)Nc3c(C)cccc3Cl)s2)cc(N2CCN(CCO)CC2)n1 [Dasatinib], the IC50 [3] is listed as less than 5 nM and the IC50 [4] is listed as less than 5 nM.
